Measured values published in the NIST ThermoML archive (doi:10.1016/j.jct.2006.05.006).

Test: xn = mol fraction of the nth substance listed
Details: 101 kPa, Liquid

CN1CCCC1=O [N-methylpyrrolidone] + Cc1ccccc1
Details | mass density [kg/m3]
293.15 K, x2 = 0 | 1032.66
293.15 K, x2 = 0.0541 | 1024.34
293.15 K, x2 = 0.1254 | 1013.29
293.15 K, x2 = 0.1845 | 1004.06
293.15 K, x2 = 0.2412 | 995.15
293.15 K, x2 = 0.3154 | 983.34
293.15 K, x2 = 0.3845 | 972.23
293.15 K, x2 = 0.4521 | 961.22
293.15 K, x2 = 0.5214 | 949.8
293.15 K, x2 = 0.5865 | 938.94
293.15 K, x2 = 0.6458 | 928.94
293.15 K, x2 = 0.7124 | 917.57
293.15 K, x2 = 0.7784 | 906.16
293.15 K, x2 = 0.8425 | 894.94
293.15 K, x2 = 0.9014 | 884.51
293.15 K, x2 = 0.9784 | 870.71
303.15 K, x2 = 0 | 1023.42
303.15 K, x2 = 0.0482 | 1016
303.15 K, x2 = 0.1235 | 1004.32
303.15 K, x2 = 0.1856 | 994.6
303.15 K, x2 = 0.2436 | 985.45
303.15 K, x2 = 0.3145 | 974.17
303.15 K, x2 = 0.3854 | 962.74
303.15 K, x2 = 0.4521 | 951.88
303.15 K, x2 = 0.5236 | 940.09
303.15 K, x2 = 0.5852 | 929.81
303.15 K, x2 = 0.6451 | 919.71
303.15 K, x2 = 0.7145 | 907.86
303.15 K, x2 = 0.7854 | 895.61
303.15 K, x2 = 0.8541 | 883.57
303.15 K, x2 = 0.9015 | 875.19
303.15 K, x2 = 0.9789 | 861.34
313.15 K, x2 = 0 | 1014.27
313.15 K, x2 = 0.0522 | 1006.21
313.15 K, x2 = 0.1257 | 994.77
313.15 K, x2 = 0.1901 | 984.67
313.15 K, x2 = 0.2401 | 976.76
313.15 K, x2 = 0.321 | 963.85
313.15 K, x2 = 0.3952 | 951.86
313.15 K, x2 = 0.4654 | 940.38
313.15 K, x2 = 0.5321 | 929.35
313.15 K, x2 = 0.5984 | 918.25
313.15 K, x2 = 0.6541 | 908.84
313.15 K, x2 = 0.7248 | 896.74
313.15 K, x2 = 0.7895 | 885.54
313.15 K, x2 = 0.8412 | 876.51
313.15 K, x2 = 0.9215 | 862.31
313.15 K, x2 = 0.9759 | 852.57
323.15 K, x2 = 0 | 1005.62
323.15 K, x2 = 0.0487 | 998.04
323.15 K, x2 = 0.1147 | 987.71
323.15 K, x2 = 0.1789 | 977.59
323.15 K, x2 = 0.2365 | 968.43
323.15 K, x2 = 0.2987 | 958.46
323.15 K, x2 = 0.3695 | 947
323.15 K, x2 = 0.4351 | 936.27
323.15 K, x2 = 0.4954 | 926.31
323.15 K, x2 = 0.5654 | 914.62
323.15 K, x2 = 0.6215 | 905.15
323.15 K, x2 = 0.6945 | 892.69
323.15 K, x2 = 0.7658 | 880.39
323.15 K, x2 = 0.8321 | 868.8
323.15 K, x2 = 0.9201 | 853.23
323.15 K, x2 = 0.9758 | 843.26
333.15 K, x2 = 0 | 996.28
333.15 K, x2 = 0.0478 | 988.83
333.15 K, x2 = 0.1102 | 979.04
333.15 K, x2 = 0.1874 | 966.85
333.15 K, x2 = 0.2451 | 957.65
333.15 K, x2 = 0.3147 | 946.45
333.15 K, x2 = 0.3984 | 932.84
333.15 K, x2 = 0.4682 | 921.37
333.15 K, x2 = 0.5321 | 910.74
333.15 K, x2 = 0.5984 | 899.6
333.15 K, x2 = 0.6541 | 890.15
333.15 K, x2 = 0.7241 | 878.16
333.15 K, x2 = 0.7985 | 865.26
333.15 K, x2 = 0.8541 | 855.52
333.15 K, x2 = 0.921 | 843.69
333.15 K, x2 = 0.98 | 833.15
343.15 K, x2 = 0 | 987.39
343.15 K, x2 = 0.0512 | 979.36
343.15 K, x2 = 0.1245 | 967.81
343.15 K, x2 = 0.1895 | 957.47
343.15 K, x2 = 0.246 | 948.41
343.15 K, x2 = 0.3124 | 937.69
343.15 K, x2 = 0.3841 | 926
343.15 K, x2 = 0.4514 | 914.91
343.15 K, x2 = 0.5214 | 903.26
343.15 K, x2 = 0.5954 | 890.81
343.15 K, x2 = 0.6598 | 879.85
343.15 K, x2 = 0.7214 | 869.28
343.15 K, x2 = 0.7954 | 856.43
343.15 K, x2 = 0.8596 | 845.17
343.15 K, x2 = 0.9214 | 834.23
343.15 K, x2 = 0.9788 | 823.98
353.15 K, x2 = 0 | 978.62
353.15 K, x2 = 0.0821 | 965.64
353.15 K, x2 = 0.1337 | 957.42
353.15 K, x2 = 0.1993 | 946.92
353.15 K, x2 = 0.2646 | 936.37
353.15 K, x2 = 0.3306 | 925.62
353.15 K, x2 = 0.3965 | 914.8
353.15 K, x2 = 0.4514 | 905.7
353.15 K, x2 = 0.5214 | 894
353.15 K, x2 = 0.5984 | 880.99
353.15 K, x2 = 0.6514 | 871.96
353.15 K, x2 = 0.7214 | 859.91
353.15 K, x2 = 0.7984 | 846.52
353.15 K, x2 = 0.858 | 836.05
353.15 K, x2 = 0.9265 | 823.91
353.15 K, x2 = 0.9799 | 814.38
